In the SangsterLogP compilation:

Structure (SMILES)	logP
OCCS	-0.06
C=C(C)CCl	1.98
OCCOCCO	-1.98
C/C=C/C=O	0.6
C=CC(=O)OCC	1.2
CCCCCCCCCCO	4.2
CC[C@H](C)N	0.6
OCC#CCO	-0.73
CCCCC(CC)COC(=O)CCCCC(=O)OCC(CC)CCCC (stereo not drawn)	8.1
OCCOCCOCCO	-1.2
O=P(OCCCl)(OCCCl)OCCCl	0.5
COS(=O)(=O)OC	0.03
C=CC(=O)O	0.31
CCCCOCCOCCOC(C)=O	1.77
O=C1OC(=O)c2ccccc21	0.7
NCCNCCN	-1.3
C1=CC2C3C=CC(C3)C2C1 (stereo not drawn)	2.9
CCCCCOC(C)=O	2
CC(C)C=O	0.4
C=CCCl	3
CCOCCOC(C)=O	0.24
Cc1ccc(S(=O)(=O)O)cc1	0.09
COCCOCCO	-1.1
CC(C)CC=O	1.3
CC(C)C(=O)O	0.88
CC(=O)OCCl	0.75
CCCCOC(=O)c1ccccc1C(=O)OCc1ccccc1	4.5
COCCOCCOCCO	-0.7
